Values quoted from earlier work as cited in US20250319089A1, “STABLE LYOPHILISATES COMPRISING 5,10-METHYLENE-(6R)-TETRAHYDROFOLIC ACID” (Merck Patent GMBH, priority 2022, published 2025).

For `Nc1nc2c(c(=O)[nH]1)N1CN(c3ccc(C(=O)N[C@@H](CCC(=O)O)C(=O)O)cc3)C[C@H]1CN2` [5,10-methylene-(6R,S)-tetrahydrofolic acid], the “purity after 24 hours compared to the starting purity” value (24 hours following dissolution in water) is listed as 44.9%, the “purity after 7 hours” value (re-constituted lyophilizate, 7 hours) is listed as 84% and the “loss of purity per hour (degradation rate)” value (re-constituted lyophilizate, linear regression) is listed as 2.3 % purity per hour.
